Structures are written as SMILES.

Test [1] deals with mechanical allodynia in mice exposed to the sciatic nerve injury. The test can be described thus: Von Frey model in mice exposed to sciatic nerve injury (partial sciatic nerve ligation). Conditions: FIG. 5, 60 mg/kg subcutaneous, Day 11 after surgery, ipsilateral. The format is in vivo. Here is the method:
The partial sciatic nerve ligation model was used to induce neuropathic pain (Malmberg and Basbaum, Pain 76: 215-222, 1998). This model consists of injury to the sciatic nerve at mid-to high level. Briefly, mice were anaesthetized with halothane (induction: 3%; surgery: 1%) and the common sciatic nerve was exposed at the level of the mid-thigh of the right paw. In control animals (sham-operated mice), an identical dissection was performed on the right paw except that the sciatic nerve was not ligated (Control). Nociceptive sensitivity was then measured was quantified by measuring the hind paw withdrawal response to von Frey filament stimulation as mentioned above. Animals underwent surgery on day 0; 11 days after surgery BD-1063 was injected subcutaneously in one group and the responses to mechanical stimuli were determined by means of the von Frey model in this and the none-treated group (before surgery) a reference value was measured in order to determine a baseline value.

Test [2] relates to capsaicin-induced allodynia. The test can be described thus: Von Frey model, capsaicin-induced mechanical allodynia. The format is in vivo, mice. From the text:
The von Frey model is a model for allodynia, stimulated mechanically (mechanical allodynia).
Interest of the model: • The injection of capsaicin to experimental animals produces acute pain followed by allodynia • The mechanisms involved in capsaicin-induced acute pain and allodynia are relatively well known (mainly activation of peripheral nociceptors and sensitization of spinal cord neurons, respectively)
After habituation mice were according to FIG. 1 first treated with the test-compound (or not in controls). Then capsaicin (1% DMSO) is injected into their paw resulting in developing pain in the effected paw. The effected paw is then treated with a mechanical stimulus and the latency time before the paw is withdrawn is measured.
2 well known antisense Oligodesoxynucleotides (ODN) against the sigma 1 receptor (King et al. (1997) Eur J Pharmacol 331:R5-R6 and Ueda et al. (2001) J. Pharmacol. Exp. Ther. 298, 703-710) were synthesized and according to the protocol shown in FIG. 3a) given on 4 consecutive days i.c.v. followed by a wash-out period and von-Frey tests according to example 1.

Test [3] has as its system sigma receptor. Conditions: Sigma 1 and Sigma 2 for pentazocine; cited from earlier work.

As to `CN1CCN(CCc2ccc(Cl)c(Cl)c2)CC1` [BD-1063, 1-(3,4-dichlorophenethyl)-4-methylpiperazine], the “effect on mechanical allodynia, von Frey model” value in test [1] is reported as “antagonizes mechanical allodynia in mice exposed to the (ipsilateral) sciatic nerve injury significantly”.
As to `CCCN(CCC)CCc1ccc(OC)c(OCCc2ccccc2)c1` [NE-100], in test [2] (FIG. 2a, mice, von Frey filaments), the “analgesia in capsaicin-induced allodynia, dose dependency” value is given as “dose dependency of the treatment with NE-100 showing analgesia”. Further, the “efficacy depending on the force of the von-Frey filaments (0.5 g allodynia vs 4 g general pain)” value in test [2] (FIG. 2b, NE-100 64 mg/kg) was “effective specifically in allodynia or mechanical allodynia and not general pain”. In addition, the “affinity to the sigma receptor” value in test [3] is listed as “high affinity”.
In the case of `O=C(OCCN1CCOCC1)C1(c2ccccc2)CCCCC1` [PRE-084], the “effect of sigma receptor agonist on the effect of NE-100” value in test [2] (FIG. 2c, given with NE-100) was “counteracting the effect of NE-100”.
Take `CC(C)=CCN1CCC2(C)c3cc(O)ccc3CC1C2C` (stereo not drawn) [pentazocine]: the “affinity to the sigma receptor” value in test [3] is “very high affinity”.

The values above are taken from patent publication US20090042898A1, “USE OF COMPOUNDS ACTIVE ON THE SIGMA RECEPTOR FOR THE TREATMENT OF MECANICAL ALLODYNIA” (priority 2004, published 2009).
